According to ChEMBL document CHEMBL1201862, “PubChem BioAssay data set” (2004):
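Cultured in 96-well plates, cells were exposed to test compound for 48 hours across five concentrations. GI50: concentration for 50% inhibition of growth.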 Calls of active or inactive are those of the source. Cut-off read from the data, not from the text of the source: active = GI50 up to about 1.1 µM and inactive = higher.

How the values were obtained:
Assay in all cases: DTP human tumour cell line panel, 48 h
786-0 = tested on: 786-0
A549 = tested on: A549
ACHN = tested on: ACHN
BT-549 = tested on: BT-549
CAKI-1 = tested on: CAKI-1
CCRF-CEM = tested on: CCRF-CEM
COLO 205 = tested on: COLO 205
DU-145 = tested on: DU-145
EKVX = tested on: EKVX
HCC 2998 = tested on: HCC 2998
HCT-116 = tested on: HCT-116
HCT-15 = tested on: HCT-15
HL-60 = tested on: HL-60
HOP-62 = tested on: HOP-62
HOP-92 = tested on: HOP-92
HT-29 = tested on: HT-29
Hs-578T = tested on: Hs-578T
IGROV-1 = tested on: IGROV-1
K562 = tested on: K562
LOX IMVI = tested on: LOX IMVI
M14 = tested on: M14
MCF7 = tested on: MCF7
MDA-MB-231 = tested on: MDA-MB-231
MDA-MB-435 = tested on: MDA-MB-435
MDA-N = tested on: MDA-N
MOLT-4 = tested on: MOLT-4
Malme-3M = tested on: Malme-3M
NCI-H226 = tested on: NCI-H226
NCI-H23 = tested on: NCI-H23
NCI-H460 = tested on: NCI-H460
NCI/ADR-RES = tested on: NCI/ADR-RES
OVCAR-3 = tested on: OVCAR-3
OVCAR-4 = tested on: OVCAR-4
OVCAR-5 = tested on: OVCAR-5
OVCAR-8 = tested on: OVCAR-8
PC-3 = tested on: PC-3
RPMI-8226 = tested on: RPMI-8226
RXF 393 = tested on: RXF 393
SF-268 = tested on: SF-268
SF-295 = tested on: SF-295
SF-539 = tested on: SF-539
SK-MEL-28 = tested on: SK-MEL-28
SK-MEL-2 = tested on: SK-MEL-2
SK-MEL-5 = tested on: SK-MEL-5
SN12C = tested on: SN12C
SNB-19 = tested on: SNB-19
SNB-75 = tested on: SNB-75
SR = tested on: SR
SW-620 = tested on: SW-620
T47D = tested on: T47D
TK-10 = tested on: TK-10
UACC-257 = tested on: UACC-257
KM12 = tested on: KM12
NCI-H522 = tested on: NCI-H522
SK-OV-3 = tested on: SK-OV-3
U-251 = tested on: U-251
UACC-62 = tested on: UACC-62
UO-31 = tested on: UO-31

`CC(=O)N1C(OC(C)C)CC(C)N1c1ccccc1` (stereo not given) was tested, and the GI50 (786-0) was > 10 µM (inactive), the GI50 (A549) was > 10 µM (inactive) and the GI50 (ACHN) was > 10 µM (inactive). The GI50 (BT-549) was > 10 µM (inactive), the GI50 (CAKI-1) was > 10 µM (inactive) and the GI50 (CCRF-CEM) was > 10 µM (inactive). The GI50 (COLO 205) was > 10 µM (inactive), the GI50 (DU-145) was > 10 µM (inactive) and the GI50 (EKVX) was > 10 µM (inactive). For the same compound, the GI50 (HCC 2998) was > 10 µM (inactive), the GI50 (HCT-116) was > 10 µM (inactive) and the GI50 (HCT-15) was greater than 10 µM. For the same compound, the GI50 (HL-60) was > 10 µM (inactive), the GI50 (HOP-62) was > 10 µM (inactive) and the GI50 (HOP-92) was > 10 µM (inactive). The GI50 (HT-29) was > 10 µM (inactive), the GI50 (Hs-578T) was > 10 µM (inactive) and the GI50 (IGROV-1) was > 10 µM (inactive). For the same compound, the GI50 (K562) was > 10 µM (inactive), the GI50 (LOX IMVI) was > 10 µM (inactive) and the GI50 (M14) was > 10 µM (inactive). For the same compound, the GI50 (MCF7) was > 10 µM (inactive), the GI50 (MDA-MB-231) was > 10 µM (inactive) and the GI50 (MDA-MB-435) was > 10 µM (inactive). The GI50 (MDA-N) was > 10 µM (inactive), the GI50 (MOLT-4) was > 10 µM (inactive) and the GI50 (Malme-3M) was > 10 µM (inactive). For the same compound, the GI50 (NCI-H226) was > 10 µM (inactive), the GI50 (NCI-H23) was > 10 µM (inactive) and the GI50 (NCI-H460) was > 10 µM (inactive). The GI50 (NCI/ADR-RES) was > 10 µM (inactive), the GI50 (OVCAR-3) was > 10 µM (inactive) and the GI50 (OVCAR-4) was > 10 µM (inactive). The GI50 (OVCAR-5) was > 10 µM (inactive), the GI50 (OVCAR-8) was > 10 µM (inactive) and the GI50 (PC-3) was > 10 µM (inactive). For the same compound, the GI50 (RPMI-8226) was > 10 µM (inactive), the GI50 (RXF 393) was > 10 µM (inactive) and the GI50 (SF-268) was > 10 µM (inactive). The GI50 (SF-295) was > 10 µM (inactive), the GI50 (SF-539) was > 10 µM (inactive) and the GI50 (SK-MEL-28) was > 10 µM (inactive). For the same compound, the GI50 (SK-MEL-2) was > 10 µM (inactive), the GI50 (SK-MEL-5) was > 10 µM (inactive) and the GI50 (SN12C) was > 10 µM (inactive). The GI50 (SNB-19) was > 10 µM (inactive), the GI50 (SNB-75) was > 10 µM (inactive) and the GI50 (SR) was > 10 µM (inactive). For the same compound, the GI50 (SW-620) was > 10 µM (inactive), the GI50 (T47D) was > 10 µM (inactive) and the GI50 (TK-10) was > 10 µM (inactive). The GI50 (UACC-257) was > 10 µM (inactive).
For `CC1(c2nc3cc(Cl)c(Cl)cc3[nH]2)CCC(CO)C(C)(C)O1` (stereo not given), the GI50 (786-0) was 42 µM (inactive), the GI50 (A549) was 33.6 µM (inactive) and the GI50 (ACHN) was 30.3 µM (inactive). For the same compound, the GI50 (BT-549) was 17.1 µM (inactive), the GI50 (CAKI-1) was 29.3 µM (inactive) and the GI50 (CCRF-CEM) was 27.9 µM (inactive). The GI50 (COLO 205) was 25.1 µM (inactive), the GI50 (DU-145) was 38 µM (inactive) and the GI50 (EKVX) was 23 µM (inactive). For the same compound, the GI50 (HCC 2998) was 32.2 µM (inactive), the GI50 (HCT-116) was 31.4 µM (inactive) and the GI50 (HCT-15) was 35.6 µM. The GI50 (HL-60) was 15 µM (inactive), the GI50 (HOP-62) was 33.3 µM (inactive) and the GI50 (HOP-92) was 44 µM (inactive). The GI50 (HT-29) was 16.4 µM (inactive), the GI50 (Hs-578T) was 14.8 µM (inactive) and the GI50 (IGROV-1) was 20.9 µM (inactive). For the same compound, the GI50 (K562) was 36.7 µM (inactive), the GI50 (KM12) was 15.1 µM (inactive) and the GI50 (LOX IMVI) was 27.7 µM (inactive). For the same compound, the GI50 (M14) was 26.2 µM (inactive), the GI50 (MCF7) was 35.9 µM (inactive) and the GI50 (MDA-MB-231) was 22.8 µM (inactive). The GI50 (MDA-MB-435) was 41.4 µM (inactive), the GI50 (MDA-N) was 29 µM (inactive) and the GI50 (MOLT-4) was 24.5 µM (inactive). The GI50 (Malme-3M) was 24.5 µM (inactive), the GI50 (NCI-H226) was 12.4 µM (inactive) and the GI50 (NCI-H23) was 25.6 µM (inactive). For the same compound, the GI50 (NCI-H522) was 6.49 µM (inactive), the GI50 (NCI/ADR-RES) was 17.7 µM (inactive) and the GI50 (OVCAR-3) was 29.5 µM (inactive). For the same compound, the GI50 (OVCAR-4) was 25.1 µM (inactive), the GI50 (OVCAR-5) was 82.2 µM (inactive) and the GI50 (OVCAR-8) was 19.5 µM (inactive). The GI50 (PC-3) was 29 µM (inactive), the GI50 (RPMI-8226) was 16.9 µM (inactive) and the GI50 (RXF 393) was 47.4 µM (inactive). The GI50 (SF-268) was 34.8 µM (inactive), the GI50 (SF-295) was 31 µM (inactive) and the GI50 (SF-539) was 25.4 µM (inactive). The GI50 (SK-MEL-28) was 24.8 µM (inactive), the GI50 (SK-MEL-2) was 30.3 µM (inactive) and the GI50 (SK-MEL-5) was 13.2 µM (inactive). The GI50 (SK-OV-3) was 94.2 µM (inactive), the GI50 (SN12C) was 32 µM (inactive) and the GI50 (SNB-19) was 54.1 µM (inactive). The GI50 (SNB-75) was 14.8 µM (inactive), the GI50 (SR) was 19.9 µM (inactive) and the GI50 (SW-620) was 30.9 µM (inactive). The GI50 (T47D) was 32.3 µM (inactive), the GI50 (TK-10) was 27.6 µM (inactive) and the GI50 (U-251) was 38.6 µM (inactive). For the same compound, the GI50 (UACC-257) was 29.6 µM (inactive), the GI50 (UACC-62) was 17.6 µM (inactive) and the GI50 (UO-31) was 15.1 µM (inactive).
`C=C1CC2CCCC12C=O` (stereo not given) was tested, and the GI50 (786-0) was > 10 µM (inactive), the GI50 (A549) was > 10 µM (inactive) and the GI50 (ACHN) was > 10 µM (inactive). The GI50 (BT-549) was > 10 µM (inactive), the GI50 (CAKI-1) was > 10 µM (inactive) and the GI50 (CCRF-CEM) was > 10 µM (inactive). The GI50 (COLO 205) was > 10 µM (inactive), the GI50 (DU-145) was > 10 µM (inactive) and the GI50 (HCC 2998) was > 10 µM (inactive). For the same compound, the GI50 (HCT-116) was > 10 µM (inactive), the GI50 (HCT-15) was greater than 10 µM and the GI50 (HL-60) was > 10 µM (inactive). For the same compound, the GI50 (HOP-62) was > 10 µM (inactive), the GI50 (HOP-92) was > 10 µM (inactive) and the GI50 (HT-29) was > 10 µM (inactive). For the same compound, the GI50 (Hs-578T) was > 10 µM (inactive), the GI50 (IGROV-1) was > 10 µM (inactive) and the GI50 (K562) was > 10 µM (inactive). For the same compound, the GI50 (KM12) was > 10 µM (inactive), the GI50 (LOX IMVI) was > 10 µM (inactive) and the GI50 (M14) was > 10 µM (inactive). For the same compound, the GI50 (MCF7) was > 10 µM (inactive), the GI50 (MDA-MB-231) was > 10 µM (inactive) and the GI50 (MDA-MB-435) was > 10 µM (inactive). The GI50 (MDA-N) was > 10 µM (inactive), the GI50 (MOLT-4) was > 10 µM (inactive) and the GI50 (Malme-3M) was > 10 µM (inactive). For the same compound, the GI50 (NCI-H23) was > 10 µM (inactive), the GI50 (NCI-H522) was > 10 µM (inactive) and the GI50 (NCI/ADR-RES) was > 10 µM (inactive). The GI50 (OVCAR-3) was > 10 µM (inactive), the GI50 (OVCAR-4) was > 10 µM (inactive) and the GI50 (OVCAR-8) was > 10 µM (inactive). For the same compound, the GI50 (PC-3) was > 10 µM (inactive), the GI50 (RPMI-8226) was > 10 µM (inactive) and the GI50 (SF-268) was > 10 µM (inactive). For the same compound, the GI50 (SF-295) was > 10 µM (inactive), the GI50 (SF-539) was > 10 µM (inactive) and the GI50 (SK-MEL-28) was > 10 µM (inactive). The GI50 (SK-MEL-5) was > 10 µM (inactive), the GI50 (SK-OV-3) was > 10 µM (inactive) and the GI50 (SN12C) was > 10 µM (inactive). The GI50 (SNB-19) was > 10 µM (inactive), the GI50 (SNB-75) was > 10 µM (inactive) and the GI50 (SR) was > 10 µM (inactive). The GI50 (SW-620) was > 10 µM (inactive), the GI50 (T47D) was > 10 µM (inactive) and the GI50 (TK-10) was > 10 µM (inactive). The GI50 (U-251) was > 10 µM (inactive), the GI50 (UACC-257) was > 10 µM (inactive) and the GI50 (UACC-62) was > 10 µM (inactive).
